Laboratory results reported in patent US9328093B2, “Selective inhibitors of ubiquitin specific protease 7, the pharmaceutical compositions thereof and their therapeutic applications” (HYBRIGENICS SA, priority 2010, dated 2016).
Like-named read-outs stand apart in the source and are kept apart here.

What was measured:
[1] = target: T1, USP8 (Homo sapiens, UniProt P40818); assay: USP8 assay with GST-Ub52-Flag substrate (HTRF); format: biochemical; conditions: USP8 400 pM
T1 construct: His (from pFastBac-HT vector) (N); made in house; host or cells: Sf9 or High Five insect cells, baculovirus
T1 sequence (P40818 1-1118): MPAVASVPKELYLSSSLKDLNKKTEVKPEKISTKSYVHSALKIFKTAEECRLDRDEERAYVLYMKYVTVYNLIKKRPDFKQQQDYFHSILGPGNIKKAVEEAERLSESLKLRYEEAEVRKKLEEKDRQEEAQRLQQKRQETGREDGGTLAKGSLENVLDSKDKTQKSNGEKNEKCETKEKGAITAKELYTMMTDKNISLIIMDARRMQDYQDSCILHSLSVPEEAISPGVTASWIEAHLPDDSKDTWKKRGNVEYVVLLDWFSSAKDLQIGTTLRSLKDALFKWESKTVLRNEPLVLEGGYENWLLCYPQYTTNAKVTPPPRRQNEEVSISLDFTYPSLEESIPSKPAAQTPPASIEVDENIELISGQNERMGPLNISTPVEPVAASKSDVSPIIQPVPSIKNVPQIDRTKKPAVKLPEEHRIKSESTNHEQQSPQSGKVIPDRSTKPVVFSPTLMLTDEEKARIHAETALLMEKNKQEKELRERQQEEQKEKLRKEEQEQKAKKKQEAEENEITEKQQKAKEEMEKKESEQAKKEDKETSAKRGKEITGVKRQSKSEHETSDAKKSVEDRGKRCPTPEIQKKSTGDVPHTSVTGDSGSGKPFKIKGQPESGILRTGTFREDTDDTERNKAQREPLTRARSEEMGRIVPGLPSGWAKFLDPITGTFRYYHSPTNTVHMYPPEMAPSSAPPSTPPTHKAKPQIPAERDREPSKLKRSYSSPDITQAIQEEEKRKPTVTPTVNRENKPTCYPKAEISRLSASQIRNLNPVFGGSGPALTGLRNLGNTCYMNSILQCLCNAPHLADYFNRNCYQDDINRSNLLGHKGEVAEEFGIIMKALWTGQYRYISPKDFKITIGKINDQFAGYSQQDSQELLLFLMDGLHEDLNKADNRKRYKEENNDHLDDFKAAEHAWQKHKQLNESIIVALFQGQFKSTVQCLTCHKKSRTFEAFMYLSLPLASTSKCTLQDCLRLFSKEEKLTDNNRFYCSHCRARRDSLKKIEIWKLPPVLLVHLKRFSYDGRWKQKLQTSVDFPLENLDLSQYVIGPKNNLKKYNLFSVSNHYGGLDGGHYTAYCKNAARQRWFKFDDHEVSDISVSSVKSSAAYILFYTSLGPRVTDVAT
Experimental: (§1) For compounds 26 to 38, the in-vitro assays on USP7 and USP8 were carried out according to the following procedure
(§2) The present examples 26 to 38 makes it possible to validate the use of GST-Ub52-Flag in an assay based on the time-resolved measurement of fluorescence emitted by […] in homogenous medium.
(§3) The assay is carried out on multiwell assay plates. The plates are analyzed on a PHERAstar fluorimeter (BMG) after an overnight incubation at 4° C. (excitation 337 nm, emission 620 and 665 nm).
(§4) The reagents used were as follows: • Solution of USP7 at 200 pM and USP8 at 400 pM in 50 mM Tris HCl pH 7.6, Bovine Serum Albumin 0.05%, DTT 5 mM. • Anti-Flag-K (CIS bio international), solution at 0.2 μM in 0.8 M KF, 0.1 Bovine Serum Albumin, Tris HCl 25 mM pH 7.6. • Anti-GST antibody-XL665 conjugate (CIS bio international), solution at 2.6 μM in 0.8 M KF, 0.1% Bovine Serum Albumin, Tris HCl 25 mM pH 7.6. • GST-Ub52-flag solution at 14.75 μM & MBP_Ub52 at 37.7 μM are prepared by dilutions from the stock solution described above in 50 mM Tris HCl pH 7.6, EDTA 0.5 mM, Bovine Serum Albumin 0.05%, DTT 5 mM.
(§5) The enzyme reaction is carried out by mixing GST-Ub52-flag solution with 5 μl of USP7 solution (200 pM final) or 5 μl of USP8 (400 pM final). This mixture is incubated for one hour at room temperature on a multiwell assay plate. A 10 μl mixture of 5 μl of anti-Flag-K solution (0.2 μM) plus 5 μl of anti-GST-XL665 antibody (2.6 μM) is added to each well of the multiwell assay plate. The plate is read after an overnight incubation at 4° C. on a PHERAstar fluorimeter (BMG).
(§6) The decrease in the signal correlates with the increase in enzyme activity i.e. the cleavage of GST-Ub52-Flag substrate. The format used is therefore entirely suitable for a method of assaying an enzyme of the deubiquitinating type such as ubiquitin specific protease, but also for determining a modulator of this enzyme activity.
(§7) The same procedures as mentioned above for assaying the activity of enzymes of the deubiquitinating type are carried out but the various reaction mixtures are incubated with identical enzyme concentration, in the presence or absence of a test compounds 26 to 38. Data (mean values+/− standard deviation) were analyzed as % of control (no compound) and plotted as percentage versus the Log of the compound concentration using GraphPad (Prism).

[2] = target: T2, USP7 (Homo sapiens, UniProt Q93009); assay: USP7 assay with GST-Ub52-Flag substrate (HTRF); format: biochemical; conditions: USP7 200 pM
T2 construct: Full-length wild-type human USP7 and its catalytic mutant (cysteine 223 replaced by alanine, C223A) were produced as N-terminally His-tagged fusions; His (N); made in house; host or cells: Spodoptera frugiperda Sf9 (or High Five) insect cells, baculovirus pFastBac-HT-B
Experimental: as §1, §2, §3, §4, §5, §6, §7

[3] = test system: HCT116 colon cancer cells; assay: HCT116 cell viability and proliferation assay (MTS); format: cell-based; conditions: HCT116, 72 hours, read-out: Cell viability (MTS): HCT116 GI50 Day3
Experimental: HCT116 colon cancer cells were obtained from ATCC (American Type Culture Collection), and maintained in Mc Coy's 5A medium containing 10% FBS, 3 mM glutamine and 1% penicillin/streptomycin. Cells were incubated at 37° C. in a humidified atmosphere containing 5% CO2.
Cell viability was assayed using the MTS technique in 96-well culture plates (CellTiter 96® Aqueous Non-Radioactive Cell Proliferation Assay, Promega) according to the manufacturer's instructions. MTS (3-(4,5-dimethyl-thiazol-2-yl)-5-(3-carboxy-methoxyphenyl)-2-(4-sulfophenyl)-2H-tetra-zolium) is a MTT-derived tetrazolium that is reduced in metabolically active cells into a soluble, cell-permeant formazan. The amount of formazan, detected by its absorbance at 492 nm is proportional to the number of living, metabolically active cells.
10^3 HCT116 cells were seeded per well. 24 hours later, the medium was changed and the cells treated in triplicate with the concentrations of each compound from 100 μM to 50 nM. The compounds were diluted in 100% DMSO, whose final concentration on cells was kept at 0.5%.
Cells were incubated with the compounds for 72 hours, and their viability then assayed by the addition of MTS for 2 hours. Absorbance at 492 nm was measured directly from the 96-well culture plates. Gl50 (Growth Inhibition 50) concentrations for each compound were calculated using a sigmoidal variable slope fit (Prism 4.0, Graphpad Softwares). Values represent mean of three independent experiments.

[4] = target: T2, USP7; assay: USP7 activity assay (Ub-AMC substrate); format: biochemical; conditions: Ub-AMC 300 nM, USP7 100 pM, 30 min pre-incubation
Source text: The cDNA encoding USP7 was obtained by PCR amplification from placenta mRNA. USP7 cDNA was subcloned by PCR into a baculovirus expression vector (pFastBac-HT; Invitrogen). Full-length wild-type human USP7 and its catalytic mutant (cysteine 223 replaced by alanine, C223A) were produced as N-terminally His-tagged fusions in Spodoptera frugiperda cells (Sf9, Invitrogen), using the Bac-to-Bac Baculovirus system from Invitrogen according to the manufacturer's instructions. pFastBac-HT-B-USP7 was used to transform DH10bac cells (Invitrogen), and blue/white selection was carried out on X-gal/IPTG agar plates. Bacmid DNA was prepared by an alkaline lysis procedure. The integrity of the bacmid minipreps and their orientation were checked by PCR, using generic and specific primers. Sf9 insect cells were cultured in InsectXpress medium (Cambrex) at 27° C. and transfected with the corresponding bacmid, using GeneShuttle 40 (Q-BIOgen). Viruses were recovered in the supernatant 72 h after transfection. Viruses were amplified by infecting insect cells (Sf9 or High Five cells; invitrogen) in 50 ml InsectXpress medium in a 150 cm^2 cell culture flask with 500 μl of the supernatant from transfected Sf9 cells. Following the second round of amplification, infected cells were recovered by rapid SDS lysis, boiled for 5 min at 100° C., sonicated briefly and centrifuged for 20 min at 14,000 g. Expression levels in infected Sf9 cells were compared with those in uninfected cells. Fusion proteins were then allowed to bind to TALON beads (BD Biosciences, TALON metal affinity resin) for 30 min at 4° C. with gentle rocking. Beads were extensively washed (50 mM sodium phosphate buffer pH 7.0, 500 mM NaCl, 10 mM Imidazole, 0.5% Triton X-100 and 10% glycerol) and bound proteins were eluted in wash buffer supplemented with 250 mM Imidazole (Sigma). Eluted fractions were resolved on 4-12% NuPAGE gels (Novex, Invitrogen). Fractions containing high concentrations of purified proteins (purity >95%) were dialyzed (20 mM Tris HCl pH 7.6, 200 mM NaCl, 1 mM DTT, 1 mM EDTA and 10% glycerol) were aliquoted and snap frozen in liquid nitrogen before storage at −80° C.
USP7 was diluted in USP buffer (50 mM Tris HCl; 0.5 mM EDTA; 5 mM DTT; 0.01% Triton X-100; Bovine Serum Albumin 0.05 mg·ml^−1 pH7.6). Compounds stocks (10 mM) were stored at −20° C. in DMSO. Compounds were tested at different concentrations: from 200 μM to 91 nM.
Reactions were performed as duplicates in Black 384 well plates (small volumes microplates; Greiner; 10 μl final reaction volume). The substrate concentration for USP7 was 300 nM Ub-AMC (Chem. Biol., 2003, 10, p. 837-846) (Boston Biochem). The concentrations of the enzyme (USP7) in specificity assays was 100 pM. The concentrations were determined in order to perform specificity assays under initial velocities at fixed substrate concentration. Compounds were pre-incubated with enzymes for 30 minutes at 25° C. Reactions were initiated by addition of substrate to the plates containing the enzymes (+/− compounds) diluted in assay buffer. Reactions were incubated for 60 minutes at 37° C. Reactions were stopped by adding acetic acid (100 mM final). Readings were performed on a Pherastar Fluorescent Reader (BMG). λ
Emission 380 nm; λ Excitation=460 nm. Data (mean values +/− standard deviation) were analyzed as % of control (no compound) and plotted as percentage versus the Log of the compound concentration using GraphPad (Prism). Data were fitted to a sigmoidal model (variable slope).

| Structure (SMILES) | IC50 [1] | IC50 [2] | GI50 ([3]; Homo sapiens, HCT-116, 72 h) | GI50 [3] | IC50 [4] |
| --- | --- | --- | --- | --- | --- |
| O=C(NCC1CCN(CCCc2ccccc2)CC1)c1ccc2c(Cl)c3c(nc2c1)CCCC3 [Example 33, 9-chloro-N-((1-(3-phenylpropyl)piperidin-4-yl)methyl)-5,6,7,8-tetrahydroacridine-3-carboxamide] | > 200 µM | 16.4 µM | 2 µM | – | – |
| CCN(CC)CCCC(C)NC(=O)c1ccc2c(Cl)c3c(nc2c1)CCCC3 (centres unmarked) [Example 35, 9-chloro-N-(5-(diethylamino)pentan-2-yl)-5,6,7,8-tetrahydroacridine-3-carboxamide] | > 200 µM | 36.9 µM | 8.2 µM | – | – |
| O=C(c1ccc2c(Cl)c3c(nc2c1)CCCC3)N1CCCCC1 [Example 31, (9-chloro-5,6,7,8-tetrahydroacridine-3-yl)(piperidin-1-yl)methanone] | > 200 µM | 24.5 µM | 11.4 µM | – | – |
| CN1CCC(N2CCN(C(=O)c3ccc4c(Cl)c5c(nc4c3)CCCC5)CC2)CC1 [Example 30, (9-chloro-5.6,7,8-tetrahydroacridine-3-yl)(4-(1-methylpiperidin-4-yl)piperazin-1-yl)methanone] | > 200 µM | 23 µM | 12.5 µM | – | – |
| O=C(NCC1CCN(Cc2ccccc2)CC1)c1ccc2c(Cl)c3c(nc2c1)CCCC3 [Example 32, N-((1-benzylpiperidin-4-yl)methyl)-9--chloro-5,6,7,8-tetrahydroacridine-3-carboxamide] | > 200 µM | 17.6 µM | 3.1 µM | – | – |

Other lines, results leading:

| IC50 [1] | IC50 [2] | GI50 ([3]; Homo sapiens, HCT-116, 72 h) | GI50 [3] | IC50 [4] | Structure (SMILES) |
| --- | --- | --- | --- | --- | --- |
| – | – | – | 5.6 µM | 30.5 µM | CCN(CC)CCNC(=O)c1ccc2c(Cl)c3c(nc2c1)CCCC3 [Example 26, chlorhydrate of 9-chloro-5,6,7,8-tetrahydro-acridine-3-carboxylic acid (2-diethylamino-ethyl)-amide] |
| > 200 µM | 38.5 µM | 7.6 µM | – | – | O=C(NCCCN1CCc2ccccc2C1)c1ccc2c(Cl)c3c(nc2c1)CCCC3 [Example 39, 9-chloro-N-(3-(3,4-dihydroisoquinolin-2(1H)-yl)propyl)-5,6,7,8-tetrahydroacridine-3-carboxamide] |
| > 200 µM | 49.2 µM | 11 µM | – | – | CN(C)CC(C)(C)CNC(=O)c1ccc2c(Cl)c3c(nc2c1)CCCC3 [Example 38, 9-chloro-N-(3-(dimethylamino)-2,2-dimethylpropyl)-5,6,7,8-tetrahydroacridine-3-carboxamide] |
